Assay results: patent US20110130355A1, “USE OF SOPHORICOSIDE IN THE MANUFACTURE OF MEDICAMENTS” (priority 2008, published 2011)
Marks after values point to notes of the source that are not given here.

How the values were obtained:
CTX-II = experiment: Determination of the urinary CTX-II content (competitive ELISA, creatinine corrected); type: in vivo, SD rats; details: OVX rats, urine at 3, 5, 7 weeks, FIG. 2, vs. model group
Protocol: Urine samples (1˜1.5 ml) were collected in eppendorf tubes from the rats before modeling and at 3 weeks, 5 weeks and 7 weeks by using metabolic cages, and stored at −20° C.
1. The concentrations of CTX-II in the urine samples obtained in accordance with example 1 were determined by the Urine Pre-clinical (PC) Cartilaps ELISA kit and the competitive enzyme linked immunosorbent assay (ELISA). The concentration of creatinine (referred to as “Crea” hereinafter) in the urine samples were determined by the multifunctional biochemistry analyzer (Beckman coulter, DXC800). The CTX-II contents were corrected by the following formula:
Corrected CTX-II ([…])=CTX-II (μg/L)/Crea (mmol/L) […]
12) The optical densities (ODs) were determined by a microplate reader (Molecular Devices Corporation, BD03315) at 450 nm and 650 nm, and a 4-parameter logistic regression curve was thereby obtained, so as to read the concentration of each sample.
4. Determination of Crea in the urine samples (mmol/L): The Crea concentration is determined by using a multiple biochemistry analyzer (Beckman coulter, DXC800) by the Lab Department of Shanghai Ruij in Hospital.
The CTX-II baseline ratios were calculated as the above formula, and the results were shown in FIG. 2, wherein ** indicates p<0.01 vs. the model group at the same time point, and * indicates p<0.05 vs. the model group at the same time point.

interleukin-5 = details: cited from earlier work
[1] = Body weights of rats before and after the treatments; type: in vivo, SD rats; details: OVX rats, after treatment (11 weeks)
Protocol: OVX group and the intervention groups: The rats were anesthetized by intraperitoneal injection of 1% pentobarbital sodium at 5 ml/kg. After the onset of anesthesia, the rats were positioned face-down and dehaired at the third lumbar vertebra below the costal arch. The skin was sanitized by benzalkonium bromide and incised by about 1 cm. The subcutaneous tissue and the fascia were incised, and the muscle was bluntly separated. The peritoneum was carefully cut open. White fat was lifted carefully by using tissue forceps inserted to the abdominal cavity through the incision. The fat was gently turned over to expose the quincuncial ovary, which was then ligated by sterile 1 silk thread. The ovary was separated by cutting the oviduct by ophthalmic scissors. After hemostasis by compression, the fat was returned into the abdominal cavity. Subsequently, an incision was made on the opposite side and the same procedures were carried out to excise the ovary on the opposite side. The peritoneum, the fascia, the subcutaneous tissue, and the skin were sutured one by one. The incisions were sanitized. The rats were raised in the clean SPF animal chamber in the Animal Experimental Center of the Shanghai Institutes for Biological Sciences, CAS, with temperature maintained at 24° C., humidity maintained at 40˜60%, and a diurnal rhythm of 12 h/12 h. The rats were supplied with normal food and purified water ad libitum. The vehicle was 1% sodium carboxymethylcellulose (CMC-Na). The sham group and OVX group were administered the vehicle by gavage. Intervention groups were administered the following formulations of active agents dissolved in the vehicle: The rats were sacrificed by cervical dislocation after 11 weeks. Uteri were removed, weighted, and fixed in 4% paraformaldehyde (PFA). The whole right knee joints were removed and fixed in 4% PFA. The rats were weighted, and then sacrificed. The uteri were removed from the rats and determined for wet weights.

[2] = tested on: articular cartilage of the knee joint; experiment: Articular surface lesions of the knee joint (toluidine blue staining, image analysis); type: in vivo, SD rats; details: OVX rats, 11 weeks; for lesion percentage for the articular surface, total: whole knee joint
Protocol: 1. The Pathological Sections of the Knee Joints of Rats
1) The knee joints of rats were fixed in 4% PFA for 48 hours;
2) The samples were decalcified in 15% ethylenediamine tetraacetic acid (EDTA) for 15 days;
The coronal sections were sectioned by a paraffin microtome (Leica, Model: RM2235) at thickness of 5 μm with the medial collateral ligament being used as a marker. The sections were transferred into warm water at 30° C., and plated on slides pre-treated with polylysine. The slides were transferred to an incubator at 65° C. for 3 hours and stored at ambient condition until use.
2) Staining: The sections were stained in 1% Ammonia Toluene blue for 5 minutes and rinsed with water for 10 minutes;
The lesion lengths in the four weight-bearing articular cartilage surface lesion regions of medial and lateral femoral condyles and medial and lateral tibial plateaus were measured with Axioplan 2 microscopy imaging analysis system (Axioplan 2 multifunctional automatic fluorescent microscope, KS400 imaging analysis system Ver. 3.0, AxioCam digital camera at a resolution of 3900×3090) by two independent persons skilled in the imaging art (FIGS. 3A and 3B). The results were averaged. The lesion percentage for each of the four articular surfaces was calculated. Finally the total lesion percentage for the knee joint was calculated as:
The lesion percentage for each part of the articular surface=lesion length/total length of the weight-bearing articular surface×100%.
The lesion percentage for articular surface of the knee joint=total lesion length/total length of the articular surface×100%.

[3] = tested on: croton oil-induced ear edema; details: in vivo; cited from earlier work

## O=c1c(-c2ccc(O[C@@H]3O[C@H](CO)[C@@H](O)[C@H](O)[C@H]3O)cc2)coc2cc(O)cc(O)c12 [HDA, 3-[4-(β-D-glucopyranosyl)-benzyl]5,7-dihydro-4H-1-benzopyran-4-one (4′,5,7-trihydroxylisoflavone-4′-D-glucoside)]
CTX-II; sophoricoside 40 mg/kg/day
  metabolic peak of urinary CTX-II (ratio to baseline) shortly after ovariectomy: also have this effect, but in a weaker manner
CTX-II; sophoricoside 80 mg/kg/day
  metabolic peak of urinary CTX-II (ratio to baseline) shortly after ovariectomy: significantly suppress the metabolic peak of CTX-II shortly after ovariectomy
interleukin-5
  inhibition of interleukin-5: inhibitor of interleukin-5
[1]; sophoricoside 10 mg/kg/day
  Final body weight: 370.9 ± 5.7 g
[1]; sophoricoside 20 mg/kg/day
  Final body weight: 376.2 ± 6.5 g
[1]; sophoricoside 40 mg/kg/day
  Final body weight: 372.5 ± 6.8 g
[1]; sophoricoside 80 mg/kg/day
  Final body weight: 362.8 ± 3.4 g
[2]; sophoricoside 10 mg/kg/day
  articular cartilage degeneration resulted from ovariectomy, in words: ameliorated by the interventions other than HDA10 and HDA20
  lesion percentage for the articular surface, total: 7.785 ± 0.547^□□ %
[2]; sophoricoside 20 mg/kg/day
  articular cartilage degeneration resulted from ovariectomy, in words: ameliorated by the interventions other than HDA10 and HDA20
  lesion percentage for the articular surface, total: 6.622 ± 0.366^□□ %
[2]; sophoricoside 40 mg/kg/day
  articular cartilage degeneration resulted from ovariectomy, in words: effective but not able to completely reverse the degeneration
  lesion percentage for the articular surface, total: 5.617 ± 0.264*^□□ %
[2]; sophoricoside 80 mg/kg/day
  articular cartilage degeneration resulted from ovariectomy, in words: significantly more effective than OVX
  lesion percentage for the articular surface, total: 4.808 ± 0.603 %
[3]
  croton oil-induced ear edema: inhibit
